Source: the kinase profiling compilation of Christmann-Franck et al. (2016)

Columns and labels:
Assay in all cases: radiometric filter-binding kinase assay, Kinase HotSpot
Conditions in all cases: compound 0.5 µM; ATP 10 µM
TEC (human) = TEC (human) (UniProt P42680)
ROCK2 (human) = ROCK2 (human) (UniProt O75116)
MAP3K8 (human) = MAP3K8 (human) (UniProt P41279)
MAP3K3 (human) = MAP3K3 (human) (UniProt Q99759)
ACVR1B (human) = ACVR1B (human) (UniProt P36896)
PAK6 (human) = PAK6 (human) (UniProt Q9NQU5)
PLK2 (human) = PLK2 (human) (UniProt Q9NYY3)
FGFR1 (human) = FGFR1 (human) (UniProt P11362)
TNK2 (human) = TNK2 (human) (UniProt Q07912)
MAPK13 (human) = MAPK13 (human) (UniProt O15264)
DMPK (human) = DMPK (human) (UniProt Q09013)
PRKCD (human) = PRKCD (human) (UniProt Q05655)
CLK1 (human) = CLK1 (human) (UniProt P49759)
FER (human) = FER (human) (UniProt P16591)
PHKG2 (human) = PHKG2 (human) (UniProt P15735)
MINK1 (human) = MINK1 (human) (UniProt Q8N4C8)
FLT1 (human) = FLT1 (human) (UniProt P17948)
KIT (human) = KIT (human) (UniProt P10721)
AKT2 (human) = AKT2 (human) (UniProt P31751)
DAPK3 (human) = DAPK3 (human) (UniProt O43293)
CDK2 CCNA2 (human) = CDK2 CCNA2 (human) (UniProt P24941+P20248)
[1] = biological target: TYK2 JH1 catalytic (human) (UniProt P29597)
PIM2 (human) = PIM2 (human) (UniProt Q9P1W9)
CSF1R (human) = CSF1R (human) (UniProt P07333)
AURKC (human) = AURKC (human) (UniProt Q9UQB9)
ZAP70 (human) = ZAP70 (human) (UniProt P43403)
CSNK1G1 (human) = CSNK1G1 (human) (UniProt Q9HCP0)
TEK (human) = TEK (human) (UniProt Q02763)
MUSK (human) = MUSK (human) (UniProt O15146)
LCK (human) = LCK (human) (UniProt P06239)
PDGFRB (human) = PDGFRB (human) (UniProt P09619)
GRK5 (human) = GRK5 (human) (UniProt P34947)
TYRO3 (human) = TYRO3 (human) (UniProt Q06418)
NEK3 (human) = NEK3 (human) (UniProt P51956)
CDK6 CCND1 (human) = CDK6 CCND1 (human) (UniProt Q00534+P24385)
EPHA4 (human) = EPHA4 (human) (UniProt P54764)
STK25 (human) = STK25 (human) (UniProt O00506)
MAPK3 (human) = MAPK3 (human) (UniProt P27361)
ERBB4 (human) = ERBB4 (human) (UniProt Q15303)
CDK7 CCNH MNAT1 (human) = CDK7 CCNH MNAT1 (human) (UniProt P50613+P51948+P51946)
CDK5 CDK5R1 p35 (human) = CDK5 CDK5R1 p35 (human) (UniProt Q00535+Q15078)
ROS1 (human) = ROS1 (human) (UniProt P08922)
Chain of ROS1 (human) (P08922 whole entry, looked up): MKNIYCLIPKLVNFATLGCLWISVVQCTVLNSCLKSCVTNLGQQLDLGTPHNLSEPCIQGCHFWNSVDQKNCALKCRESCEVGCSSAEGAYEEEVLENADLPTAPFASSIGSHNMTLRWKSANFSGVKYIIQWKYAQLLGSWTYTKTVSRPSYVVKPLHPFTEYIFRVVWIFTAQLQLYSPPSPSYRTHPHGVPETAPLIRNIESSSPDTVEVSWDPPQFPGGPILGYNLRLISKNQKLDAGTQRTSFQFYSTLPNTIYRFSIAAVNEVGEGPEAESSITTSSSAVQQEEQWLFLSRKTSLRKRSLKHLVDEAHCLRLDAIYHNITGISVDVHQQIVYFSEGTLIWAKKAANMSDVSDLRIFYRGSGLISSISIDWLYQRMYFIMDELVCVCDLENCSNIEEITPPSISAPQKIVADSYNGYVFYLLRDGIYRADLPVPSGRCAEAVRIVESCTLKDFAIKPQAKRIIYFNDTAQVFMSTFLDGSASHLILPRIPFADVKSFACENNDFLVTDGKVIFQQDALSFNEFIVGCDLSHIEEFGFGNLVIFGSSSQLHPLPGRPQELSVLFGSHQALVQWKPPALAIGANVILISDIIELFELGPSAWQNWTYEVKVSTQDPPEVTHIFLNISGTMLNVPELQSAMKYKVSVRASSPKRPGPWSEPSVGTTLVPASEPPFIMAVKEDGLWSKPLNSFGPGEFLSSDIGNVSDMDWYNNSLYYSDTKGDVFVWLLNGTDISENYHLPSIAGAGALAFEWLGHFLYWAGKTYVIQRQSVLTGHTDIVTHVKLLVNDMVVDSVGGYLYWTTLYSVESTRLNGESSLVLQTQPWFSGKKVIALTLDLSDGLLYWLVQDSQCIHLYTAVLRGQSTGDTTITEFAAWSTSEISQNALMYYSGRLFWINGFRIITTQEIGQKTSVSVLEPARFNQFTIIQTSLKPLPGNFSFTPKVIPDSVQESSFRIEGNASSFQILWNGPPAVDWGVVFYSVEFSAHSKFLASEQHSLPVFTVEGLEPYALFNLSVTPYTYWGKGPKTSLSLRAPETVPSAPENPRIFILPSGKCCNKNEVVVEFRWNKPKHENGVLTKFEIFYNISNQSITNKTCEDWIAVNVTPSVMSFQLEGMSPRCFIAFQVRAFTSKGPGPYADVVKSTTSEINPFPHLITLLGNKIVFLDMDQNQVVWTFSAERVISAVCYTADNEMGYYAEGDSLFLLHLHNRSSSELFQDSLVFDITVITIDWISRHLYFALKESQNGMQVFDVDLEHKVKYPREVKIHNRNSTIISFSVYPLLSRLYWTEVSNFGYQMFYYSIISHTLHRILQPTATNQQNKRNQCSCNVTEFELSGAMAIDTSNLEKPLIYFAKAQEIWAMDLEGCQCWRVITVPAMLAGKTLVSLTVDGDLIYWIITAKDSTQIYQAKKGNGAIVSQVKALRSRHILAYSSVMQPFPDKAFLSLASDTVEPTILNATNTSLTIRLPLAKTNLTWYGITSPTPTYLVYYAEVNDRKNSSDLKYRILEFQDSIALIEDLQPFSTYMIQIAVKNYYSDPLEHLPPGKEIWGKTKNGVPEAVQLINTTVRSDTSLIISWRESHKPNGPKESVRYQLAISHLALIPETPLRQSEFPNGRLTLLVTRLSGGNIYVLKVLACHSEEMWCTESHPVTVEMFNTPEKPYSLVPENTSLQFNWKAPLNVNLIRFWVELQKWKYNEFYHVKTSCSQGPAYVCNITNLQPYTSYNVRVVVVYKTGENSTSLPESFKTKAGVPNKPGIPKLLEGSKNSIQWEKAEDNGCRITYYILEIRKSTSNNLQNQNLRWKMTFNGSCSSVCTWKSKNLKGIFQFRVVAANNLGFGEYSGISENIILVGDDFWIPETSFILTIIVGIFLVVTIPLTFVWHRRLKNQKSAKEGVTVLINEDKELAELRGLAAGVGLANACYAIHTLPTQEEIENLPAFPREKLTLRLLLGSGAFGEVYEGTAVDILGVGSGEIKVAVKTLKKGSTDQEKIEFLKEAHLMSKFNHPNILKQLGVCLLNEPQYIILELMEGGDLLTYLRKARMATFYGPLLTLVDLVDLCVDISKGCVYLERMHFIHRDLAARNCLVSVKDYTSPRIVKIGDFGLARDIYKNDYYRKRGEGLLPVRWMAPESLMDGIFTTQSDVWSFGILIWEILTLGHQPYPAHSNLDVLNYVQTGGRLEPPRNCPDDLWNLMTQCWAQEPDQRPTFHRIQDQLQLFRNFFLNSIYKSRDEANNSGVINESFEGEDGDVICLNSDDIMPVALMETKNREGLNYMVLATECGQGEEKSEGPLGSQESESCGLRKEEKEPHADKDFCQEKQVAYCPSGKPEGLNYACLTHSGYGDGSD

Chain of MAP3K3 (human) (Q99759 whole entry, looked up): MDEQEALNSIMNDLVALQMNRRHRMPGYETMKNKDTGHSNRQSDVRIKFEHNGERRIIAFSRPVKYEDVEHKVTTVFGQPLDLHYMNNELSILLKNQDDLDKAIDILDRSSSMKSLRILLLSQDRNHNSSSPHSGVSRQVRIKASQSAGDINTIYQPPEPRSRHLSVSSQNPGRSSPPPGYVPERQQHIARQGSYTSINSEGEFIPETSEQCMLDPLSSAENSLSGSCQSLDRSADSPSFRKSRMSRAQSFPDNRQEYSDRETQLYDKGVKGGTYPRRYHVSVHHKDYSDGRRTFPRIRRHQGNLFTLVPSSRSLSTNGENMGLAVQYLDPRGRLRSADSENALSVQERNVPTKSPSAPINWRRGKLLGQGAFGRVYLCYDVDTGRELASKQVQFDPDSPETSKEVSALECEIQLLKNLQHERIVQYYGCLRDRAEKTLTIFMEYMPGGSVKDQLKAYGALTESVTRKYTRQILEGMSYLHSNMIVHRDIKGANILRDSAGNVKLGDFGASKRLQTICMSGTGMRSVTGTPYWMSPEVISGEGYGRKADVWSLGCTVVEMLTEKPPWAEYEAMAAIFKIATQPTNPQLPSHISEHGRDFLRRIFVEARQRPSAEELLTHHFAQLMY
Chain of PHKG2 (human) (P15735 whole entry, looked up): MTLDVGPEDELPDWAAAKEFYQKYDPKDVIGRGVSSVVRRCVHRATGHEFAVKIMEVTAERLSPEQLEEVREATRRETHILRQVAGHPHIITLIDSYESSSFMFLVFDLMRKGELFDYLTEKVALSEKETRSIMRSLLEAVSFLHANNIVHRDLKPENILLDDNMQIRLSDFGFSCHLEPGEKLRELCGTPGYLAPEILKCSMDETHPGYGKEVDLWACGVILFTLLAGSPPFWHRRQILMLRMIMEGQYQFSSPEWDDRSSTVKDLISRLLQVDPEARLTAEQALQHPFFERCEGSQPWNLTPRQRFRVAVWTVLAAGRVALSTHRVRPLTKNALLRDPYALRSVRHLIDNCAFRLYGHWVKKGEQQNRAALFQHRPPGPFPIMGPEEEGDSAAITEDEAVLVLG
Chain of MAPK13 (human) (O15264 whole entry, looked up): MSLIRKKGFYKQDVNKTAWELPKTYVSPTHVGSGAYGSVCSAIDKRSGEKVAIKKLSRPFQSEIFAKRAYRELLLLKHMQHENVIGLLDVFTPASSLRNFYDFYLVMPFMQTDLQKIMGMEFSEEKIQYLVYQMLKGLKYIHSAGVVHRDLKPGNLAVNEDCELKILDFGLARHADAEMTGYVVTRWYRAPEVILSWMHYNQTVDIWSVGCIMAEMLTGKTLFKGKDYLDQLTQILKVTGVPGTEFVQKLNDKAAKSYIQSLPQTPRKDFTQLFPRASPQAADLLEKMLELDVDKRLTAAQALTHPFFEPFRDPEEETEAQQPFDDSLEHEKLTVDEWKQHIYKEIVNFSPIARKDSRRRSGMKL
Chain of MAPK3 (human) (P27361 whole entry, looked up): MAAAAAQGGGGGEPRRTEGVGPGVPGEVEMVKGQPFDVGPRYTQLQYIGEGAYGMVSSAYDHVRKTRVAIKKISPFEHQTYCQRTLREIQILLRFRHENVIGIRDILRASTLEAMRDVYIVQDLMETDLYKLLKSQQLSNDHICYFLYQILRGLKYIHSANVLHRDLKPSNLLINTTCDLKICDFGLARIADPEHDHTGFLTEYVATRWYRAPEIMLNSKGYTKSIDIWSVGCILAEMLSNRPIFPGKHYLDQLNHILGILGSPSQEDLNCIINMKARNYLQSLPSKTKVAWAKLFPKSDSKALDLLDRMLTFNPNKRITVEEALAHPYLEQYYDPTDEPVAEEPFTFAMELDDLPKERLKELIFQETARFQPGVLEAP
Chain of ZAP70 (human) (P43403 whole entry, looked up): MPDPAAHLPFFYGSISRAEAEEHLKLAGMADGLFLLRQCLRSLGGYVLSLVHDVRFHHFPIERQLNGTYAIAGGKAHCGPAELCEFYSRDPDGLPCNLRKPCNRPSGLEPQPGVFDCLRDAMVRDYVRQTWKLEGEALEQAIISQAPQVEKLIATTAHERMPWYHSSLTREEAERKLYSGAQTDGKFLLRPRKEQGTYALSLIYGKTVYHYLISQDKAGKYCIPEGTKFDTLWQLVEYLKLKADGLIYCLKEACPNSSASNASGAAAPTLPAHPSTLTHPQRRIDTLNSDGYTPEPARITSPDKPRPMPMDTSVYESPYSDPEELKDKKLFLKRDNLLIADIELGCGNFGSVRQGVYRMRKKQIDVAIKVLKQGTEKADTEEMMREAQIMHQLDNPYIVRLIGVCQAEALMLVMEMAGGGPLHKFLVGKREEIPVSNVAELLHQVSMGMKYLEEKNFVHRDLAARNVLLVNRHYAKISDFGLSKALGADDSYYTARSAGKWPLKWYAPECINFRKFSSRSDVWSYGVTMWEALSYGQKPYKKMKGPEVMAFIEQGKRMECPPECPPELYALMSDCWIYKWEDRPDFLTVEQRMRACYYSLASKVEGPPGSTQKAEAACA
Chain of AURKC (human) (Q9UQB9 whole entry, looked up): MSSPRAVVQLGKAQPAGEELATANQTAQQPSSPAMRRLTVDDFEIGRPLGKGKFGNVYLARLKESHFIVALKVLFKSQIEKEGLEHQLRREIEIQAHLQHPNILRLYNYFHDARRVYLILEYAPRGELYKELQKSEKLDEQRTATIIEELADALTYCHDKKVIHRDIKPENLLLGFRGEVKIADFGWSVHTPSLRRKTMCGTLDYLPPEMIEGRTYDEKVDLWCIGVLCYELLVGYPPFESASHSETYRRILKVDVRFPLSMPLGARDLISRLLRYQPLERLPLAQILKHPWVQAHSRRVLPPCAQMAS

## O=C1Nc2ccccc2/C1=C1\Nc2ccccc2\C1=N/O
TEC (human)
  residual activity: 105%
ROCK2 (human)
  residual activity: 98.5%
MAP3K8 (human)
  residual activity: 106%
MAP3K3 (human)
  residual activity: 94.4%
ACVR1B (human)
  residual activity: 102%
PAK6 (human)
  residual activity: 94.4%
PLK2 (human)
  residual activity: 106%
FGFR1 (human)
  residual activity: 52.2%
TNK2 (human)
  residual activity: 40.6%
MAPK13 (human)
  residual activity: 105%
DMPK (human)
  residual activity: 101%
PRKCD (human)
  residual activity: 95%
CLK1 (human)
  residual activity: 90.9%
FER (human)
  residual activity: 67.8%
PHKG2 (human)
  residual activity: 60.7%
MINK1 (human)
  residual activity: 50.2%
FLT1 (human)
  residual activity: 73.6%
KIT (human)
  residual activity: 73.2%
AKT2 (human)
  residual activity: 92%
DAPK3 (human)
  residual activity: 94.4%
CDK2 CCNA2 (human)
  residual activity: 29.6%
[1]
  residual activity: 24.3%
PIM2 (human)
  residual activity: 106%
CSF1R (human)
  residual activity: 83.2%
AURKC (human)
  residual activity: 56.4%
ZAP70 (human)
  residual activity: 95.6%
CSNK1G1 (human)
  residual activity: 86.8%
TEK (human)
  residual activity: 98.7%
MUSK (human)
  residual activity: 71.2%
LCK (human)
  residual activity: 77.1%
PDGFRB (human)
  residual activity: 72.6%
GRK5 (human)
  residual activity: 103%
TYRO3 (human)
  residual activity: 79.6%
NEK3 (human)
  residual activity: 102%
CDK6 CCND1 (human)
  residual activity: 52.8%
EPHA4 (human)
  residual activity: 89.4%
STK25 (human)
  residual activity: 87.5%
MAPK3 (human)
  residual activity: 90.4%
ERBB4 (human)
  residual activity: 102%
CDK7 CCNH MNAT1 (human)
  residual activity: 89.9%
CDK5 CDK5R1 p35 (human)
  residual activity: 23.8%
ROS1 (human)
  residual activity: 65.6%
